Experimental data: article PMC12169613 (Journal of Medicinal Chemistry, 2025)
Like-named read-outs stand apart in the source and are kept apart here.

Legend:
Nluc-GPR1 = Nluc-GPR1 (Homo sapiens, UniProt P46091); test: cell-based
Description: After overnight incubation at standard conditions, 75,000 cells/well were seeded into a black, solid 96-well plate using phenol red-free culture medium. […] (positive control) was added to the cells. […] The readout was performed directly in a microplate reader (Tecan Spark) with a filter for fluorescence (λem = 550–700 nm) and bioluminescence (λem = 430–470 nm). Data studies were performed as mentioned for arr-3 BRET.

human Y1 receptor (hY1R) = human Y1 receptor (hY1R) (Homo sapiens, UniProt P25929)
CMKLR1 [1] = settings: cited from earlier work
CMKLR1 [2] = biological target: CMKLR1 (Homo sapiens, UniProt Q99788)
Source text: Data are presented as mean±SEM.
(2 pictures or pasted objects on this page, not shown here)

Nluc-GPR1, sequence (P46091 whole entry): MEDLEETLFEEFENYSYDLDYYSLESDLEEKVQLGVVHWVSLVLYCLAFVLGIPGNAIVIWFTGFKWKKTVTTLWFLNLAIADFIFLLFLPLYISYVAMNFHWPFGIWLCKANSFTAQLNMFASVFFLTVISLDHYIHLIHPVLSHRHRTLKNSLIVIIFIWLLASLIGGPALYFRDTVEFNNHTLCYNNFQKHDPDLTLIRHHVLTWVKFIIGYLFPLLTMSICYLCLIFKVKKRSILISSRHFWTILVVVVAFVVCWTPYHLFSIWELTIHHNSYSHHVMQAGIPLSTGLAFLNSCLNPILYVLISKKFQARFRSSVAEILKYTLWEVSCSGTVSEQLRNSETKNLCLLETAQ
human Y1 receptor (hY1R), sequence (P25929 whole entry): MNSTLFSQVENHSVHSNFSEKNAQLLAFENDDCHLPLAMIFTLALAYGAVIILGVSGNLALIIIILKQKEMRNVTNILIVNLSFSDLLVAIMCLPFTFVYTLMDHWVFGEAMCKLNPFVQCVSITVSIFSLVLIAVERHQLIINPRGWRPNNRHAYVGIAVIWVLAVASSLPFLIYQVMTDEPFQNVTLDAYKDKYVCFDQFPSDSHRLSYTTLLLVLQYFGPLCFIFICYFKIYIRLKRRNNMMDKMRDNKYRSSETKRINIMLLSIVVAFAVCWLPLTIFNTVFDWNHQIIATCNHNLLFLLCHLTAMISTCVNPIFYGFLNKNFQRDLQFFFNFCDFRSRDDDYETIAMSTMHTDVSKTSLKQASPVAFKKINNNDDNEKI
CMKLR1 (Homo sapiens, UniProt Q99788), sequence (Q99788 3-373): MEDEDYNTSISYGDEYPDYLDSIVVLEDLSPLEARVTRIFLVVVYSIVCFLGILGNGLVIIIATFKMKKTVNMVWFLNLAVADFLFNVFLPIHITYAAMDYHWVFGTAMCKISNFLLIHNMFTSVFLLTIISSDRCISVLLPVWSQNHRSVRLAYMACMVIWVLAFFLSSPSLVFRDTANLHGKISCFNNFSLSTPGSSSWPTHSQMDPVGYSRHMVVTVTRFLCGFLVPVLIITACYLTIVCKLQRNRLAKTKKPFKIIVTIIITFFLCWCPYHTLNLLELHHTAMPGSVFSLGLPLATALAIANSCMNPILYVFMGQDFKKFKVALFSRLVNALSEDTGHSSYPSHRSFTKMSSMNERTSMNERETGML

COc1ccc(C)cc1NC(=O)CSc1nc(=O)c(S(=O)(=O)c2ccc(C)c(Cl)c2)c[nH]1 [Compound 1, 2-{[5-(3-Chloro-4-methylbenzenesulfonyl)-4-oxo-1,4-dihydropyrimidin-2-yl]sulfanyl}-N-(2-methoxy-5-methyl-phenyl)acetamide]
Ki (Nluc-GPR1): > 1000 nM | Ki (Nluc-GPR1; read-out: Nluc-GPR1 Ki): 1320 nM | effect at hY1R (in words) (human Y1 receptor (hY1R)): no effect

C[N+](C)(C)CCC(=O)c1cccc2ccccc12.[I-] [α-NETA, 2-(α-naphthoyl)-ethyl-trimethylammonium iodide]
IC50 (CMKLR1 [1]): 380 nM | influence on CMKLR1 G protein signaling (in words) (CMKLR1 [2]): No influence
